Reference: patent US5189211A, “Sulfonamide derivatives” (Taisho Pharmaceutical Co., Ltd., priority 1990, dated 1993)
Read-outs that look alike come from different tables or passages of the source.

What was measured:
[1] = test system: blood platelet aggregation; experiment: In vitro test in rabbit: inhibition of U-46619-induced blood platelet aggregation in platelet rich plasma (thromboxane A2 antagonism); format: cell-based, male New Zealand strain house rabbits; details: rabbit PRP, U-46619 final concentration 5 μM, 37° C., 3 minutes preincubation, measured for 5 minutes, read-out: IC50 (concentration of the test drug required to bring 50% inhibition to the maximum aggregation rate)
Description: Experiment [In Vitro Test in Rabbit]
The remaining blood was centrifuged at 1500 g for 10 minutes to give platelet poor prasma (PPP). Platelet count of PRP was adjusted to 50-60×10^4 /μl by dilution of PRP by PPP.
Namely, a compound of Formula I as a test drug was dissolved in dimethyl sulfoxide and adjusted to the desired concentration with physiological saline solution.

thrombocytopenia = experiment: Test of acute thrombocytopenia in mice (U-46619-induced); format: in vivo, male ICR mice; details: administered peritoneally 30 seconds prior to U-46619 25 μg/kg caudal vein, platelet count 30 seconds after injection, class by dose giving more than 50% inhibition
Description: Experiment 2 [Test of Acute Thrombocytopenia in Mice]
Male ICR mice weighting 25 g were used (7-11 animals for each group).
Thrombocytopenia was induced by injection of an aggregation-inducing substance (U-46619) having thromboxane A2 -like action in amount of 25 μg/kg from the caudal vein. At 30 seconds after injection of U-46619, 20 μl of the blood was collected from the femoral artery, and the platelet counts were immediately measured by means of an automatic blood cell counter (CC-180A, made by Toa Iyoudenshi Co.).
The compound of Formula I was suspended in 5% gum arabic solution and administered peritoneally to the test animals 30 seconds prior to injection of U-46619. As a comparative drug, BM was tested as above.
The inhibition ratio of the thrombocytopenia was calculated by the proportion of the decrease ratio of platelet count of the group treated with the test drug to that of the group with 5% gum arabic solution, and the activity was determined by the following criterion.
+: More than 50% inhibition at a dose of 1.0 mg/kg
++: More than 50% inhibition at a dose of 0.3 mg/kg
+++: More than 50% inhibition at a dose of 0.1 mg/kg

[2] = Oryctolagus cuniculus, Platelet

Molecule	IC50 [1]	IC50 [1, 2]	Activity (inhibition ratio of the thrombocytopenia) (thrombocytopenia)
4-[2-(4-Methylsulfonylamino)ethylthio]phenylacetic acid [Compound No. 94]	3.1 µM	–	–
O=C(O)COc1ccc(CCNS(=O)(=O)c2ccccc2)cc1 [BM, 4-[2-(phenylsulfonylamino)ethyl]phenoxyacetic acid, reference compound]	–	12 µM	+ (More than 50% inhibition at a dose of 1.0 mg/kg)
O=C(O)CCc1ccc(SCCNS(=O)(=O)c2ccc(Cl)cc2)cc1 [Compound No. 52, 3-{4-[2-(4-chlorophenylsulfonylamino)ethylthio]phenyl}propionic acid]	–	1.1 µM	–
Cc1ccc(S(=O)(=O)NCCSc2ccc(CCC(=O)O)cc2)cc1 [Compound No. 53, 3-{4-[2-(4-Methylphenylsulfonylamino)ethylthio]phenyl}propionic acid]	–	5.8 µM	–
O=C(O)CCc1ccc(SCCNS(=O)(=O)c2ccc(F)cc2)cc1 [Compound No. 54, 3-{4-[2-(4-Fluorophenylsulfonylamino)ethylthio]phenyl}propionic acid]	–	2.4 µM	–
O=C(O)CCc1ccc(SCCNS(=O)(=O)c2ccc(Br)cc2)cc1 [Compound No. 55, 3-{4-[2-(4-Bromophenylsulfonylamino)ethylthio]phenyl}propionic acid]	–	1.7 µM	–
CCOC(=O)COc1ccc(CSCCNS(=O)(=O)c2ccc(Cl)cc2)cc1 [Compound No. 63, Ethyl 4-[2-(4-chlorophenylsulfonylamino)ethylthiomethyl]phenoxyacetate]	–	7.3 µM	–
O=C(O)COc1c(F)cc(SCCNS(=O)(=O)c2ccccc2)cc1F [Compound No. 67, 2,6-difluoro-4-[2-(phenylsulfonylamino)ethylthio]phenoxyacetic acid]	–	1.8 µM	+ (More than 50% inhibition at a dose of 1.0 mg/kg)
O=C(O)COc1c(F)cc(SCCNS(=O)(=O)c2ccc(Cl)cc2)cc1F [Compound No. 68, 2.6-Difluoro-4-[2-(4-chlorophenylsulfonylamino)ethylthio]phenoxyacetic acid]	–	0.3 µM	+++ (More than 50% inhibition at a dose of 0.1 mg/kg)
Cc1ccc(S(=O)(=O)NCCSc2cc(F)c(OCC(=O)O)c(F)c2)cc1 [Compound No. 69, 2,6-Difluoro-4-[2-(4-methylphenylsulfonylamino)ethylthio]phenoxyacetic acid]	–	0.54 µM	++ (More than 50% inhibition at a dose of 0.3 mg/kg)
O=C(O)COc1ccc(SCCNS(=O)(=O)c2ccc(Cl)cc2)cc1F [Compound No. 71, 2-Fluoro-4-[2-(4-chlorophenylsulfonylamino)ethylthio]phenoxyacetic acid]	–	1.5 µM	+ (More than 50% inhibition at a dose of 1.0 mg/kg)
O=C(O)COc1ccc(SCCNS(=O)(=O)c2ccc(Cl)cc2)cc1 [Compound No. 74, 4-[2-(4-Chlorophenylsulfonylamino)ethylthio]phenoxyacetic acid]	–	4.5 µM	–
O=C(O)COc1ccc(SCCNS(=O)(=O)c2ccc(Br)cc2)cc1 [Compound No. 78, 4-[2-(4-Bromophenylsulfonylamino)ethylthio]phenoxyacetic acid]	–	5.2 µM	–
O=C(O)Cc1ccc(SCCNS(=O)(=O)c2ccc(Cl)cc2)cc1 [Compound No. 93, 4-[2-(4-Chlorophenylsulfonylamino)ethylthio]phenylacetic acid]	–	1.5 µM	+ (More than 50% inhibition at a dose of 1.0 mg/kg)
O=C(O)CCc1ccc(SCCNS(=O)(=O)c2ccc([N+](=O)[O-])cc2)cc1 [Compound No. 103, 3-{4-[2-(4-Nitrophenylsulfonylamino)ethylthio]phenyl}propionic acid]	–	1.5 µM	–
O=C(O)COc1ccc(SCCNS(=O)(=O)c2ccc(F)cc2)cc1F [Compound No. 105, 2-Fluoro-4-[2-(4-fluorophenylsulfonylamino)ethylthio]phenoxyacetic acid]	–	4.5 µM	–
O=C(O)COc1ccc(SCCNS(=O)(=O)c2ccc(Br)cc2)cc1F [Compound No. 106, 2-Fluoro-4-[2-(4-bromophenylsulfonylamino)ethylthio]phenoxyacetic acid]	–	2 µM	–
COc1ccc(S(=O)(=O)NCCSc2ccc(OCC(=O)O)c(F)c2)cc1 [Compound No. 107, 2-Fluoro-4-[2-(4-methoxyphenylsulfonylamino)ethylthio]phenoxyacetic acid]	–	7.4 µM	–
O=C(O)Cc1ccc(SCCNS(=O)(=O)c2ccc(F)cc2)cc1 [Compound No. 112, 4-[2-(4-Fluorophenylsulfonylamino)ethylthio]phenylacetic acid]	–	0.63 µM	–
O=C(O)Cc1ccc(SCCNS(=O)(=O)c2ccc(Br)cc2)cc1 [Compound No. 113, 4-[2-(4-Bromophenylsulfonylamino)ethylthio]phenylacetic acid]	–	0.3 µM	–
COc1ccc(S(=O)(=O)NCCSc2ccc(CC(=O)O)cc2)cc1 [Compound No. 114, 4-[2-(4-Methoxyphenylsulfonylamino)ethylthio]phenylacetic acid]	–	0.92 µM	–
O=C(O)Cc1ccc(SCCNS(=O)(=O)c2ccc([N+](=O)[O-])cc2)cc1 [Compound No. 115, 4-[2-(4-Nitrophenylsulfonylamino)ethylthio]phenylacetic acid]	–	0.93 µM	–
O=C(O)COc1c(F)cc(SCCNS(=O)(=O)c2ccc(F)cc2)cc1F [Compound No. 119, 2,6-Difluoro-4-[2-(4-fluorophenylsulfonylamino)ethylthio]phenoxyacetic acid]	–	0.58 µM	–
O=C(O)COc1c(F)cc(SCCNS(=O)(=O)c2ccc(Br)cc2)cc1F [Compound No. 120, 2,6-Difluoro-4-[2-(4-bromophenylsulfonylamino)ethylthio]phenoxyacetic acid]	–	0.33 µM	–
O=C(O)COc1c(F)cc(SCCNS(=O)(=O)c2ccc([N+](=O)[O-])cc2)cc1F [Compound No. 121, 2,6-Difluoro-4-[2-(4-nitrophenylsulfonylamino)ethylthio]phenoxyacetic acid]	–	0.75 µM	–
COc1ccc(S(=O)(=O)NCCSc2cc(F)c(OCC(=O)O)c(F)c2)cc1 [Compound No. 125, 2,6-Difluoro-4-[2-(4-methoxyphenylsulfonylamino)ethylthio]phenoxyacetic acid]	–	0.67 µM	–
